13 compounds from PubChem BioAssay (NCI) can be followed below.

Some test systems named below: SK-MEL-5 melanoma; UACC-62 melanoma; RPMI-8226 leukemia; OVCAR-5 ovarian; HS 578T breast; SK-MEL-2 melanoma; SF-295 CNS; SNB-19 CNS; HT29 colon; RXF 393 renal.
What all share (test): NCI-60 cell line screen, 48 h

“And” between values parts separate entries of the source, which are not always exact repeats. Equal values may be shown once.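 96-well plates; 48 h exposure; 5 concentrations. Endpoints by linear interpolation between flanking doses. Not reached: highest tested concentration assigned. At the GI50, growth is halved. TGI: total growth inhibition.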

Consider `O=C1CC2OCC=C3CN4CCC56c7ccccc7N1C5C2C3CC46O` (stereo not drawn), for which the TGI in the test on SK-MEL-5 melanoma, in the test on UACC-62 melanoma, with RPMI-8226 leukemia, with OVCAR-5 ovarian, in the test on HS 578T breast and in the test with SK-MEL-2 melanoma was greater than 100 µM each time. The TGI in the test on SF-295 CNS, in the test with SNB-19 CNS and with HT29 colon was greater than 100 µM each time.
On to `Cc1ccc(CNc2ccc(Br)cc2)cc1`, for which the TGI in the test on SK-MEL-5 melanoma is 30.8 µM; in the test on UACC-62 melanoma, greater than 100 µM; with RPMI-8226 leukemia, 17.5 µM; in the test on OVCAR-5 ovarian, greater than 100 µM; in the test with RXF 393 renal, 76.5 µM; in the test with HS 578T breast, greater than 100 µM. Also, the TGI with SF-295 CNS is greater than 100 µM; with SNB-19 CNS it was greater than 100 µM; with HT29 colon, 93.4 µM.
For `Oc1ccc(Br)cc1C=Nc1cccc(C(F)(F)F)c1`, the TGI is greater than 100 µM in the test on SK-MEL-5 melanoma; 71.1 µM with UACC-62 melanoma; greater than 100 µM with RPMI-8226 leukemia; greater than 100 µM in the test on OVCAR-5 ovarian; greater than 100 µM in the test on RXF 393 renal; 83.3 µM with HS 578T breast. Further, the TGI with SK-MEL-2 melanoma was 49 µM; with SF-295 CNS, greater than 100 µM; with SNB-19 CNS it was greater than 100 µM; with HT29 colon, greater than 100 µM.
With `CCOC(=O)CSc1cc(Cl)c(C)cc1S(=O)(=O)/N=C(/N=C/c1ccc([N+](=O)[O-])s1)NNC`, the GI50 was 15.2 µM in the test with SK-MEL-5 melanoma; 14.1 µM in the test on UACC-62 melanoma; 36.7 µM in the test on RPMI-8226 leukemia; 6.02 µM in the test with OVCAR-5 ovarian; 22 µM with RXF 393 renal; 28 µM with HS 578T breast. For the same compound, the GI50 in the test on SK-MEL-2 melanoma is 31 µM; in the test with SF-295 CNS, 16.1 µM; in the test with SNB-19 CNS, 22.8 µM; in the test with HT29 colon, 15 µM. The TGI in the test with SK-MEL-5 melanoma was 29 µM; with UACC-62 melanoma it was 30.8 µM; in the test with RPMI-8226 leukemia it was greater than 100 µM; with OVCAR-5 ovarian it was 38.4 µM; in the test with RXF 393 renal it was greater than 100 µM; with HS 578T breast, 76.7 µM. Further, the TGI in the test on SK-MEL-2 melanoma stood at 59.1 µM; in the test on SF-295 CNS, 47 µM; in the test on SNB-19 CNS, 80.1 µM; with HT29 colon, 28.2 µM.
`COc1ccc2nc3cc(Cl)ccc3c(NCCCNCCO)c2c1`: the GI50 with SK-MEL-5 melanoma was 1.55 µM; in the test on UACC-62 melanoma, 0.807 µM; in the test on RPMI-8226 leukemia, 0.497 µM; with OVCAR-5 ovarian it was 0.531 µM; with RXF 393 renal it was 0.58 µM; with HS 578T breast, 1.48 µM. Also, the GI50 in the test with SK-MEL-2 melanoma was 1.32 µM; in the test on SF-295 CNS, 0.523 µM; with SNB-19 CNS, 0.5 µM; with HT29 colon, 0.292 µM. Also, the TGI came out at 2.93 µM with SK-MEL-5 melanoma; 2.54 µM in the test on UACC-62 melanoma; 2.74 µM with RPMI-8226 leukemia; 3.28 µM with OVCAR-5 ovarian; 2.22 µM in the test on RXF 393 renal; 5.62 µM with HS 578T breast. For the same compound, the TGI in the test on SK-MEL-2 melanoma came to 2.79 µM; in the test on SF-295 CNS, 2.32 µM; in the test on SNB-19 CNS, 3.79 µM; in the test with HT29 colon, 1.41 µM.
On to `C[C@@]1([C@H](OC(=O)c2ccccc2)C(N)=O)CO1`, for which the GI50 is 15.1 µM in the test with SK-MEL-5 melanoma; 14.9 µM in the test on UACC-62 melanoma; 26.2 µM in the test with RPMI-8226 leukemia; 34.1 µM in the test with OVCAR-5 ovarian; 18 µM in the test on RXF 393 renal; 34.4 µM with HS 578T breast. Also, the GI50 in the test with SK-MEL-2 melanoma is 22.1 µM; with SF-295 CNS it was 16.9 µM; with SNB-19 CNS, 30.5 µM; in the test with HT29 colon it was 27 µM. Moreover, the TGI in the test on SK-MEL-5 melanoma was 31.3 µM; in the test on UACC-62 melanoma, 29.4 µM; with RPMI-8226 leukemia, greater than 100 µM; in the test with OVCAR-5 ovarian it was 85.9 µM; in the test with RXF 393 renal, 43.5 µM; with HS 578T breast, 92.7 µM. Also, the TGI in the test with SK-MEL-2 melanoma is greater than 100 µM; in the test with SF-295 CNS it was 41.5 µM; in the test on SNB-19 CNS, 93.6 µM; in the test on HT29 colon it was greater than 100 µM.
As to `COc1cc2c(c(OC)c1OC)-c1ccc(NN(C(=O)c3ccccc3)C(=O)c3ccccc3)c(=O)cc1[C@@H](NC(C)=O)CC2` (tested in a mixture with another compound), the GI50 was 2.49 µM in the test on SK-MEL-5 melanoma; 4.18 µM in the test on UACC-62 melanoma; 4.72 µM in the test on RPMI-8226 leukemia; 3.95 µM with OVCAR-5 ovarian; 2.24 µM with RXF 393 renal; 1.9 µM in the test on HS 578T breast. The GI50 was 3.42 µM with SK-MEL-2 melanoma, 3.81 µM with SF-295 CNS, 6.7 µM in the test with SNB-19 CNS and 2.93 µM with HT29 colon. The TGI in the test on SK-MEL-5 melanoma is 11 µM; in the test on UACC-62 melanoma, 42.1 µM; in the test on RPMI-8226 leukemia, 82.5 µM; in the test on OVCAR-5 ovarian, greater than 100 µM; in the test on RXF 393 renal, 8 µM; in the test on HS 578T breast, 6.3 µM. Further, the TGI with SK-MEL-2 melanoma is 16.6 µM; in the test with SF-295 CNS it was greater than 100 µM; in the test with SNB-19 CNS, greater than 100 µM; in the test with HT29 colon, 11.1 µM.
`C=C1C[C@H]2C=Nc3cc(OCCCOc4cc5c(cc4OC)C(=O)N4CC(=C)C[C@H]4C=N5)c(OC)cc3C(=O)N2C1`: the GI50 is 0.000264 µM in the test with UACC-62 melanoma; 0.000136 µM in the test on RPMI-8226 leukemia; 0.0197 µM and < 0.0205 µM in the test on OVCAR-5 ovarian; 0.0168 µM and < 0.0128 µM in the test on SK-MEL-2 melanoma; 0.00706 µM in the test with SF-295 CNS; 0.00545 µM in the test on SNB-19 CNS. In addition, the TGI is 0.000834 µM and < 0.0123 µM with UACC-62 melanoma; 0.00904 µM and 0.0252 µM in the test on RPMI-8226 leukemia; less than 0.0292 µM in the test with RXF 393 renal; greater than 100 µM with HS 578T breast; 0.0347 µM and < 0.0282 µM in the test with SK-MEL-2 melanoma; 0.64 µM in the test on SF-295 CNS. Besides, the TGI amounted to 4.39 µM in the test on SNB-19 CNS and 19.7 µM with HT29 colon.
For `CSc1ccc(C2=C(c3ccccc3)C(=O)OC2)cc1`, the GI50 in the test on SK-MEL-5 melanoma is 0.732 µM; in the test on UACC-62 melanoma, 0.715 µM; in the test with OVCAR-5 ovarian, 5.18 µM; with RXF 393 renal, 1.87 µM; in the test on HS 578T breast, 0.219 µM; in the test with SK-MEL-2 melanoma, 1.64 µM. The values for the GI50 with SF-295 CNS, with SNB-19 CNS and with HT29 colon were 0.597 µM, 0.804 µM and 0.239 µM, respectively. The TGI in the test on SK-MEL-5 melanoma is 3.56 µM; in the test on UACC-62 melanoma it was 53.8 µM; in the test with OVCAR-5 ovarian it was greater than 100 µM; with HS 578T breast, 1.22 µM; in the test with SK-MEL-2 melanoma, greater than 100 µM; in the test on SF-295 CNS, 1.98 µM. In addition, the TGI with SNB-19 CNS and in the test on HT29 colon was greater than 100 µM each time.
On to `COc1cnc2c(c1)C(=O)c1c-2n(CCCNC2=NCCS2)c(=O)c2cc(F)ccc12`, for which the GI50 in the test with SK-MEL-5 melanoma is 0.342 µM; with UACC-62 melanoma, 0.344 µM; in the test with RPMI-8226 leukemia, 0.0702 µM; in the test on OVCAR-5 ovarian it was 0.795 µM; with HS 578T breast, 12 µM; in the test on SK-MEL-2 melanoma it was 15.8 µM. In addition, the results for the GI50 in the test on SF-295 CNS, in the test with SNB-19 CNS and in the test on HT29 colon were 0.0518 µM, 0.15 µM and 0.0753 µM, respectively. For the same compound, the TGI in the test with SK-MEL-5 melanoma was 1.44 µM; with UACC-62 melanoma it was 14.6 µM; with RPMI-8226 leukemia, 1.21 µM; in the test on OVCAR-5 ovarian, 13.3 µM; in the test with HS 578T breast, 32.4 µM; with SK-MEL-2 melanoma it was 32.7 µM. The TGI with SF-295 CNS turned out to be 0.891 µM; in the test with SNB-19 CNS, 2.61 µM; with HT29 colon, 2.02 µM.
Consider `COC1=C(N)C(=O)c2nc(-c3nc(C(=O)O)c(C)c(-c4ccc(OC)c(OC)c4O)c3N)ccc2C1=O`, for which the GI50 is 0.00116 µM and 0.0104 µM in the test with SK-MEL-5 melanoma; 0.00103 µM and 0.000879 µM and < 0.01 µM in the test on UACC-62 melanoma; 0.00215 µM and 0.00924 µM and < 0.01 µM in the test with RPMI-8226 leukemia; 0.00332 µM and 0.00352 µM and 0.0143 µM in the test on OVCAR-5 ovarian. The TGI with RPMI-8226 leukemia was 0.00647 µM and 0.0298 µM and 0.0225 µM; in the test with RXF 393 renal it was 15 nM [middle of 4 runs]; with HS 578T breast, 0.0412 µM; with SF-295 CNS it was 0.00323 µM and 0.0236 µM and 0.0136 µM; in the test with SNB-19 CNS it was 0.00354 µM and 0.0228 µM and < 0.011 µM; with HT29 colon, 0.0337 µM and 0.0342 µM and 0.0663 µM.
Regarding `CCOC(=O)[C@@H](C)C[C@H](Cc1ccccc1)NC(=O)c1csc([C@@H](C[C@H](C(C)C)N(C)C(=O)[C@@H](NC(=O)[C@H]2CCCCN2C)C(C)(C)CC)OC(C)=O)n1`, the GI50 in the test with SK-MEL-5 melanoma is less than 0.00167 µM; with UACC-62 melanoma, less than 0.00167 µM; in the test with RPMI-8226 leukemia, less than 0.00167 µM; with OVCAR-5 ovarian, 0.0037 µM; with HS 578T breast, less than 0.00167 µM; with SK-MEL-2 melanoma, less than 0.00167 µM. For the same compound, the GI50 with SF-295 CNS, with SNB-19 CNS and in the test on HT29 colon was less than 0.00167 µM each time. For the same compound, the TGI with SK-MEL-5 melanoma was 0.0294 µM; in the test on UACC-62 melanoma, greater than 16.7 µM; in the test on RPMI-8226 leukemia, 4.18 µM; with OVCAR-5 ovarian it was greater than 16.7 µM; with HS 578T breast, 2.17 µM; in the test with SK-MEL-2 melanoma, greater than 16.7 µM. Further, the TGI is 1.87 µM with SF-295 CNS, greater than 16.7 µM in the test on SNB-19 CNS and greater than 6.79 µM in the test on HT29 colon.
On to `COc1cc(-c2cc(/C=C/C(=O)c3ccc(F)c(F)c3)[nH]n2)cc(OC)c1OC`, for which the GI50 was 2.27 µM in the test on SK-MEL-5 melanoma; 2.38 µM in the test on UACC-62 melanoma; 1.76 µM in the test with RPMI-8226 leukemia; 4.49 µM in the test on OVCAR-5 ovarian; 2.05 µM in the test with RXF 393 renal; 3.58 µM in the test on HS 578T breast. Also, the values for the GI50 in the test on SK-MEL-2 melanoma, with SNB-19 CNS and in the test with HT29 colon were 2.3 µM, 3.64 µM and 2.62 µM, respectively. Also, the TGI in the test with SK-MEL-5 melanoma came to 6.41 µM; in the test with UACC-62 melanoma, 7.44 µM; in the test with RPMI-8226 leukemia, 6 µM; with OVCAR-5 ovarian, 33.8 µM; in the test on RXF 393 renal, 6.34 µM; in the test on HS 578T breast, 36.8 µM. Further, the results for the TGI in the test with SK-MEL-2 melanoma, with SNB-19 CNS and in the test on HT29 colon were 5.89 µM, greater than 100 µM and 6.47 µM, respectively.
